In ChEMBL document CHEMBL3044779, “The action of herbicides on fatty acid biosynthesis and elongation in barley and cucumber” (Pest Manag Sci, 2010):
Active and inactive are the calls of the source. No cut-off for these calls is given here.

Columns and labels:
[1] = tested on: Cucumis sativus; experiment: Inhibition of fatty acid synthesis in Cucumis sativus (cucumber) using [14C]acetate assessed as [14C]-labeled 18C fatty acid level at 100 uM after 3 hr by liquid scintillation counting (reference value: 26.6 +/- 1.6%); type: functional; set-up: scale not given: the % may be the effect or the level left
[2] = tested on: Hordeum vulgare; experiment: Inhibition of fatty acid synthesis in Hordeum vulgare (barley) using [14C]acetate assessed as [14C]-labeled 18C fatty acid level at 100 uM after 3 hr by liquid scintillation counting (reference value: 53.7 +/- 0.7%); type: functional; set-up: scale not given: the % may be the effect or the level left
[3] = tested on: Cucumis sativus; experiment: Inhibition of fatty acid synthesis in Cucumis sativus (cucumber) using [14C]acetate assessed as [14C]-labeled 22C fatty acid level at 100 uM after 3 hr by liquid scintillation counting (reference value: 25.5 +/- 2%); type: functional; set-up: scale not given: the % may be the effect or the level left
[4] = tested on: Cucumis sativus; experiment: Inhibition of fatty acid synthesis in Cucumis sativus (cucumber) using [14C]malonate assessed as [14C]-labeled 18C fatty acid level at 100 uM after 3 hr by liquid scintillation counting (reference value: 22.5 +/- 2.2%); type: functional; set-up: scale not given: the % may be the effect or the level left
[5] = tested on: Cucumis sativus; experiment: Inhibition of fatty acid synthesis in Cucumis sativus (cucumber) using [14C]malonate assessed as [14C]-labeled 20C fatty acid level at 100 uM after 3 hr by liquid scintillation counting (reference value: 11.5 +/- 3%); type: functional; set-up: scale not given: the % may be the effect or the level left
[6] = tested on: Cucumis sativus; experiment: Inhibition of fatty acid synthesis in Cucumis sativus (cucumber) assessed as inhibition of [14C]acetate incoporation in total fatty acids at 100 uM measured as total disintegration per g of fresh weight after 3 hr by liquid scintillation counting (reference value: 12.1 +/- 1.4%); type: functional
[7] = tested on: Hordeum vulgare; experiment: Inhibition of fatty acid synthesis in Hordeum vulgare (barley) using [14C]malonate assessed as [14C]-labeled 20C fatty acid level at 100 uM after 3 hr by liquid scintillation counting (reference value: 14.5 +/- 1.7%); type: functional; set-up: scale not given: the % may be the effect or the level left
[8] = tested on: Hordeum vulgare; experiment: Inhibition of fatty acid synthesis in Hordeum vulgare (barley) using [14C]malonate assessed as [14C]-labeled 16C fatty acid level at 100 uM after 3 hr by liquid scintillation counting (reference value: 3.1 +/- 0.6%); type: functional; set-up: scale not given: the % may be the effect or the level left
[9] = tested on: Hordeum vulgare; experiment: Inhibition of fatty acid synthesis in Hordeum vulgare (barley) using [14C]acetate assessed as [14C]-labeled 16C fatty acid level at 100 uM after 3 hr by liquid scintillation counting (reference value: 29.2 +/- 2.1%); type: functional; set-up: scale not given: the % may be the effect or the level left
[10] = tested on: Cucumis sativus; experiment: Inhibition of fatty acid synthesis in Cucumis sativus (cucumber) using [14C]acetate assessed as [14C]-labeled 20C fatty acid level at 100 uM after 3 hr by liquid scintillation counting (reference value: 9 +/- 0.9%); type: functional; set-up: scale not given: the % may be the effect or the level left
[11] = tested on: Hordeum vulgare; experiment: Inhibition of fatty acid synthesis in Hordeum vulgare (barley) using [14C]acetate assessed as [14C]-labeled 24C fatty acid level at 100 uM after 3 hr by liquid scintillation counting (reference value: 5 +/- 0.8%); type: functional; set-up: scale not given: the % may be the effect or the level left
[12] = tested on: Hordeum vulgare; experiment: Inhibition of fatty acid synthesis in Hordeum vulgare (barley) using [14C]acetate assessed as [14C]-labeled 20C fatty acid level at 100 uM after 3 hr by liquid scintillation counting (reference value: 3.8 +/- 0.6%); type: functional; set-up: scale not given: the % may be the effect or the level left
[13] = tested on: Hordeum vulgare; experiment: Inhibition of fatty acid synthesis in Hordeum vulgare (barley) using [14C]acetate assessed as [14C]-labeled 22C fatty acid level at 100 uM after 3 hr by liquid scintillation counting (reference value: 8.3 +/- 0.9%); type: functional; set-up: scale not given: the % may be the effect or the level left
[14] = tested on: Hordeum vulgare; experiment: Inhibition of fatty acid synthesis in Hordeum vulgare (barley) using [14C]malonate assessed as [14C]-labeled 24C fatty acid level at 100 uM after 3 hr by liquid scintillation counting (reference value: 20 +/- 1.2%); type: functional; set-up: scale not given: the % may be the effect or the level left
[15] = tested on: Hordeum vulgare; experiment: Inhibition of fatty acid synthesis in Hordeum vulgare (barley) assessed as inhibition of [14C]malonate incoporation in total fatty acids at 100 uM measured as total disintegration per g of fresh weight after 3 hr by liquid scintillation counting (reference value: 8.8 +/- 2.4%); type: functional
[16] = tested on: Cucumis sativus; experiment: Inhibition of fatty acid synthesis in Cucumis sativus (cucumber) using [14C]malonate assessed as [14C]-labeled 24C fatty acid level at 100 uM after 3 hr by liquid scintillation counting (reference value: 9 +/- 2.5%); type: functional; set-up: scale not given: the % may be the effect or the level left
[17] = tested on: Cucumis sativus; experiment: Inhibition of fatty acid synthesis in Cucumis sativus (cucumber) using [14C]acetate assessed as [14C]-labeled 16C fatty acid level at 100 uM after 3 hr by liquid scintillation counting (reference value: 31.9 +/- 5%); type: functional; set-up: scale not given: the % may be the effect or the level left
[18] = tested on: Hordeum vulgare; experiment: Inhibition of fatty acid synthesis in Hordeum vulgare (barley) using [14C]malonate assessed as [14C]-labeled 18C fatty acid level at 100 uM after 3 hr by liquid scintillation counting (reference value: 22.8 +/- 2.7%); type: functional; set-up: scale not given: the % may be the effect or the level left
[19] = tested on: Cucumis sativus; experiment: Inhibition of fatty acid synthesis in Cucumis sativus (cucumber) assessed as inhibition of [14C]malonate incoporation in total fatty acids at 100 uM measured as total disintegration per g of fresh weight after 3 hr by liquid scintillation counting (reference value: 7.6 +/- 1.6%); type: functional
[20] = tested on: Cucumis sativus; experiment: Inhibition of fatty acid synthesis in Cucumis sativus (cucumber) using [14C]malonate assessed as [14C]-labeled 16C fatty acid level at 100 uM after 3 hr by liquid scintillation counting (reference value: 8.5 +/- 1.4%); type: functional; set-up: scale not given: the % may be the effect or the level left
[21] = tested on: Hordeum vulgare; experiment: Inhibition of fatty acid synthesis in Hordeum vulgare (barley) using [14C]malonate assessed as [14C]-labeled 22C fatty acid level at 100 uM after 3 hr by liquid scintillation counting (reference value: 31.3 +/- 1.6%); type: functional; set-up: scale not given: the % may be the effect or the level left
[22] = molecular target: T1, Acetyl-CoA carboxylase (Zea mays, UniProt Q3V4E6); experiment: Inhibition of Zea mays (maize) cytosolic ACCase using acetyl-coA as substrate assessed as inhibition of [14C]NaHCO3 incorporation into malonyl-coA incubated for 10 min prior to substrate addition measured for 20 min by liquid scintillation counting
T1 sequence (Q3V4E6 whole entry): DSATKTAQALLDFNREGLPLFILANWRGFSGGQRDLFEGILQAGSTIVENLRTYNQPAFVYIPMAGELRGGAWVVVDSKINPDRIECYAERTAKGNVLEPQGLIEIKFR

[23] = tested on: Hordeum vulgare; experiment: Inhibition of fatty acid synthesis in Hordeum vulgare (barley) assessed as inhibition of [14C]acetate incoporation in total fatty acids at 100 uM measured as total disintegration per g of fresh weight after 3 hr by liquid scintillation counting (reference value: 9.2 +/- 2.4%); type: functional
[24] = tested on: Cucumis sativus; experiment: Inhibition of fatty acid synthesis in Cucumis sativus (cucumber) using [14C]malonate assessed as [14C]-labeled 22C fatty acid level at 100 uM after 3 hr by liquid scintillation counting (reference value: 48.5 +/- 6.4%); type: functional; set-up: scale not given: the % may be the effect or the level left
[25] = molecular target: T1, Acetyl-CoA carboxylase; experiment: Inhibition of Zea mays (maize) chloroplastic ACCase using acetyl-coA as substrate assessed as inhibition of [14C]NaHCO3 incorporation into malonyl-coA incubated for 10 min prior to substrate addition measured for 20 min by liquid scintillation counting
[26] = tested on: Hordeum vulgare; experiment: Inhibition of fatty acid synthesis in Hordeum vulgare (barley) using [14C]malonate assessed as [14C]-labeled 26C fatty acid level at 100 uM after 3 hr by liquid scintillation counting (reference value: 8.3 +/- 0.4%); type: functional; set-up: scale not given: the % may be the effect or the level left
[27] = tested on: Cucumis sativus; experiment: Inhibition of fatty acid synthesis in Cucumis sativus (cucumber) using [14C]acetate assessed as reduction in [14C]-labeled 24C fatty acid level at 100 uM after 3 hr by liquid scintillation counting relative to control; type: functional, organism-based

Structure (SMILES): Cc1sc(-c2ccc(Cl)cc2)nc1C1C(=O)CC2(CCCCC2)C1=O (configuration not stated) [Spiro-decanedione A]
- Activity [1]: 43.8%
- Activity [2]: 20.5%
- Activity [3]: 2.3%
- Activity [4]: 20%
- Activity [5]: 18.1%
- Activity [6]: 14.3 ×10⁶ dpm
- Activity [7]: 15.8%
- Activity [8]: 0.9%
- Activity [9]: 4.6%
- Activity [10]: 3.4%
- Activity [11]: 16.8%
- Activity [12]: 24.4%
- Activity [13]: 33.7%
- Activity [14]: 25.3%
- Activity [15]: 9.9 ×10⁶ dpm
- Activity [16]: 10%
- Activity [17]: 50.5%
- Activity [18]: 18.6%
- Activity [19]: 12.7 ×10⁶ dpm
- Activity [20]: 8.9%
- Activity [21]: 31.2%
- IC50 [22]: 20 nM
- Activity [23]: 3.6 ×10⁶ dpm
- Activity [24]: 43%
- IC50 [25]: 8 nM
- Activity [26]: 8.2%
- inhibition [27]: Active
